Test results: US11591341B2 (ALIGOS THERAPEUTICS, INC., priority 2019, dated 2023)

Test system: HBV
Test: HBV-DNA Antiviral Assay Using HepG2.117 Cells (intracellular HBV DNA by qPCR)
Type: cell-based, hepatitis B virus (genotype D)
Conditions: Hepatitis B virus, HepG2.117
Method in brief: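 HepG2.117 cells (genotype D HBV, Tet-off) were induced by doxycycline withdrawal and treated for 3 days with 9 concentrations in 4-fold dilution, 2% DMSO final. Intracellular HBV DNA was measured by qPCR against a standard curve, with ATPlite viability read in parallel. EC50, EC90 and CC50 came from fits against the DMSO control.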

Structure (SMILES): CC(C)Oc1ccc(-n2c(C(=O)N[C@H](C)c3ccc(C#N)cc3)c3n(c2=O)CCN(C(=O)c2ccc(Br)c(Cl)c2)C3)cc1 (stereo in doubt) [Example 233, 7-(4-bromo-3-chloro-benzoyl)-2-(4-isopropoxyphenyl)-3-oxo-N-[rac-(1R)-1-(4-cyanophenyl)ethyl]-6,8-dihydro-5H-imidazo[1,5-a]pyrazine-1-carboxamide]
- EC50: 100 to 500 nM

Structure (SMILES): CC(C)Oc1ccc(-n2c(C(=O)N[C@@H](C)c3ccc(C#N)cc3)c3n(c2=O)CCN(C(=O)c2ccc(Br)c(Cl)c2)C3)cc1 (stereo in doubt) [Example 234, 7-(4-bromo-3-chloro-benzoyl)-2-(4-isopropoxyphenyl)-3-oxo-N-[rac-(1S)-1-(4-cyanophenyl)ethyl]-6,8-dihydro-5H-imidazo[1,5-a]pyrazine-1-carboxamide]
- EC50: 100 to 500 nM

Structure (SMILES): COc1ccc([C@H](C)NC(=O)c2c3n(c(=O)n2-c2ccc(OC(C)C)cc2)CCN(C(=O)c2ccc(Br)c(Cl)c2)C3)c(F)c1 (stereo in doubt) [Example 235, 7-(4-bromo-3-chloro-benzoyl)-2-(4-isopropoxyphenyl)-3-oxo-N-[rac-(1S)-1-(2-fluoro-4-methoxy-phenyl)ethyl]-6,8-dihydro-5H-imidazo[1,5-a]pyrazine-1-carboxamide]
- EC50: 100 to 500 nM

Structure (SMILES): C[C@@H](c1ccccc1)N1C[C@@H](O)Cn2c(c3n(c2=O)CCN(C(=O)c2ccc(Br)c(Cl)c2)C3)C1=O (stereo in doubt) [Example 237, (11RS)-2-(4-bromo-3-chloro-benzoyl)-11-hydroxy-13-[(1S)-1-phenylethyl]-4,7,9,13-tetrazatricyclo[7.5.0.0^2,7]tetradec-1-ene-8,14-dione]
- EC50: 500 to 5000 nM

Structure (SMILES): C[C@@H](c1ccccc1)N1C[C@H](O)Cn2c(c3n(c2=O)CCN(C(=O)c2ccc(Br)c(Cl)c2)C3)C1=O (stereo in doubt) [Example 238, (11SR)-4-(4-bromo-3-chloro-benzoyl)-11-hydroxy-13-[(1S)-1-phenylethyl]-4,7,9,13-tetrazatricyclo[7.5.0.0^2,7]tetradec-1-ene-8,14-dione]
- EC50: 100 to 500 nM

Structure (SMILES): COc1ccc([C@@H](C)NC(=O)c2c3n(c(=O)n2-c2ccc(OC(C)C)cc2)CCN(C(=O)c2ccc(Br)c(Cl)c2)C3)c(F)c1 (stereo in doubt) [Example 245, 7-(4-bromo-3-chloro-benzoyl)-2-(4-isopropoxyphenyl)-3-oxo-N-[rac-(1R)-1-(2-fluoro-4-methoxy-phenyl)ethyl]-6,8-dihydro-5H-imidazo[1,5-a]pyrazine-1-carboxamide]
- EC50: < 100 nM

Structure (SMILES): COc1ccc(-n2c(C(=O)N[C@@H](c3ccccc3)C(F)F)c3n(c2=O)CCN(C(=O)c2ccc(Br)c(Cl)c2)C3)cc1 (stereo in doubt) [Example 252, 7-(4-bromo-3-chloro-benzoyl)-2-(4-methoxyphenyl)-3-oxo-N-[rac-(1S)-2,2-difluoro-1-phenyl-ethyl]-6,8-dihydro-5H-imidazo[1,5-a]pyrazine-1-carboxamide]
- EC50: 100 to 500 nM

Structure (SMILES): COc1ccc(-n2c(C(=O)N[C@H](c3ccccc3)C(F)F)c3n(c2=O)CCN(C(=O)c2ccc(Br)c(Cl)c2)C3)cc1 (stereo in doubt) [Example 253, 7-(4-bromo-3-chloro-benzoyl)-2-(4-methoxyphenyl)-3-oxo-N-[rac-(1R)-2,2-difluoro-1-phenyl-ethyl]-6,8-dihydro-5H-imidazo[1,5-a]pyrazine-1-carboxamide]
- EC50: 100 to 500 nM

Structure (SMILES): C[C@@H](NC(=O)c1c2n(c(=O)n1-c1ccc(OCC(F)(F)F)cc1)CCN(C(=O)c1ccc(Br)c(Cl)c1)C2)c1ccccc1F (stereo in doubt) [Example 262, 7-(4-bromo-3-chloro-benzoyl)-3-oxo-N-[rac-(1R)-1-(2-fluorophenyl)ethyl]-2-[4-(2,2,2-trifluoroethoxy)phenyl]-6,8-dihydro-5H-imidazo[1,5-a]pyrazine-1-carboxamide]
- EC50: 100 to 500 nM

Structure (SMILES): C[C@H](NC(=O)c1c2n(c(=O)n1-c1ccc(OCC(F)(F)F)cc1)CCN(C(=O)c1ccc(Br)c(Cl)c1)C2)c1ccccc1F (stereo in doubt) [Example 264, 7-(4-bromo-3-chloro-benzoyl)-3-oxo-N-[rac-(1S)-1-(2-fluorophenyl)ethyl]-2-[4-(2,2,2-trifluoroethoxy)phenyl]-6,8-dihydro-5H-imidazo[1,5-a]pyrazine-1-carboxamide]
- EC50: 500 to 5000 nM

Structure (SMILES): C[C@@H](Oc1ccc(-n2c(C(=O)NCc3ccccc3)c3n(c2=O)CCN(C(=O)c2ccc(Br)c(Cl)c2)C3)cc1)C(F)(F)F (stereo in doubt) [Example 282, N-benzyl-7-(4-bromo-3-chloro-benozyl)-3-oxo-2-[4-[rac-(1R)-2,2,2-trifluoro-1-methyl-ethoxy]phenyl]-6,8-dihydro-5H-imidazo[1,5-a]pyrazine-1-carboxamide]
- EC50: 500 to 5000 nM

Structure (SMILES): C[C@H](Oc1ccc(-n2c(C(=O)NCc3ccccc3)c3n(c2=O)CCN(C(=O)c2ccc(Br)c(Cl)c2)C3)cc1)C(F)(F)F (stereo in doubt) [Example 283, N-benzyl-7-(4-bromo-3-chloro-benozyl)-3-oxo-2-[4-[rac-(1S)-2,2,2-trifluoro-1-methyl-ethoxy]phenyl]-6,8-dihydro-5H-imidazo[1,5-a]pyrazine-1-carboxamide]
- EC50: 500 to 5000 nM

Structure (SMILES): COc1ccc(CN2Cc3c4n(c(=O)n3C[C@H](O)C2)CCN(C(=O)c2ccc(Br)c(Cl)c2)C4)c(F)c1 (stereo in doubt) [Example 288, rac-(11R)-4-(4-bromo-3-chloro-benzoyl-13-[(2-fluoro-4-methoxy-phenyl)methyl]-11-hydroxy-4,7,9,13-tetrazatricyclo[7.5.0.0^2,7]tetradec-1-ene-8,14-dione]
- EC50: 100 to 500 nM

Structure (SMILES): COc1ccc(CN2Cc3c4n(c(=O)n3C[C@@H](O)C2)CCN(C(=O)c2ccc(Br)c(Cl)c2)C4)c(F)c1 (stereo in doubt) [Example 289, rac-(11S)-4-(4-bromo-3-chloro-benzoyl)-13-[(2-fluoro-4-methoxy-phenyl)methyl]-11-hydroxy-4,7,9,13-tetrazatricyclo[7,5.0.0^2,7]tetradec-1-ene-8,14-dione]
- EC50: 100 to 500 nM

Structure (SMILES): C[C@@H](NC(=O)c1c2n(c(=O)n1-c1ccc(OC3CC3)cc1)CCN(C(=O)c1ccc(Br)c(Cl)c1)C2)c1ccc(OC(F)(F)F)cc1F (stereo in doubt) [Example 290, 7-(4-bromo-3-chloro-benzoyl)-2-[4-(cyclopropoxy)phenyl]-3-oxo-N-[rac-(1R)-1-[2-fluoro-4-(trilfuoromethoxy)phenyl]ethyl]-6,8-dihydro-5H-imidazo[1,5-a]pyrazine-1-carboxamide]
- EC50: 500 to 5000 nM

Structure (SMILES): C[C@H](NC(=O)c1c2n(c(=O)n1-c1ccc(OC3CC3)cc1)CCN(C(=O)c1ccc(Br)c(Cl)c1)C2)c1ccc(OC(F)(F)F)cc1F (stereo in doubt) [Example 291, 7-(4-bromo-3-chloro-benzoyl)-2-[4-(cyclopropoxy)phenyl]-3-oxo-N-[rac-(1S)-1-[2-fluoro-4-(trifluoromethoxy)phenyl]ethyl]-6,8-dihydro-5H-imidazo[1,5-a]pyrazine-1-carboxamide]
- EC50: 500 to 5000 nM

Structure (SMILES): CO[C@@H]1CN(Cc2ccccc2)Cc2c3n(c(=O)n2C1)CCN(C(=O)c1ccc(Br)c(Cl)c1)C3 (stereo in doubt) [Example 309, rac-(11R)-13-benzyl-4-(4-bromo-3-choro-benzoyl)-11-methoxy-4,7,9,13-tetrazatricyclo[7.5.0.0^2,7]tetradec-1-ene-8,14-dione]
- EC50: 500 to 5000 nM

Structure (SMILES): CO[C@H]1CN(Cc2ccccc2)Cc2c3n(c(=O)n2C1)CCN(C(=O)c1ccc(Br)c(Cl)c1)C3 (stereo in doubt) [Example 310, rac-(11S)-13-benzyl-4-(4-bromo-3-chloro-benzoyl)-11-methoxy-4,7,9,13-tetrazatricyclo[7.5.0.0^2,7]tetradec-1-ene-8,14-dione]
- EC50: 100 to 500 nM

Structure (SMILES): C[C@H](NC(=O)c1c2n(c(=O)n1-c1ccc(OC3CC3)cc1)CCN(C(=O)c1ccc(Br)c(Cl)c1)C2)c1ccc(OCC(N)=O)cc1F (stereo in doubt) [Example 315, 7-(4-bromo-3-chloro-benzoyl)-2-[4-(cyclopropoxy)phenyl]-3-oxo-N-[rac-(1R)-1-[4-(2-amino-2-oxo-ethoxy)-2-fluoro-phenyl]ethyl]-6,8-dihydro-5H-imidazo[1,5-a]pyrazine-1-carboxamide]
- EC50: 500 to 5000 nM

Structure (SMILES): C[C@@H](NC(=O)c1c2n(c(=O)n1-c1ccc(OC3CC3)cc1)CCN(C(=O)c1ccc(Br)c(Cl)c1)C2)c1ccc(OCC(N)=O)cc1F (stereo in doubt) [Example 316, 7-(4-bromo-3-chloro-benzoyl)-2-[4-(cyclopropoxy)phenyl]-3-oxo-N-[rac-(1S)-1-[4-(2-amino-2-oxo-ethoxy)-2-fluoro-phenyl]ethyl]-6,8-dihydro-5H-imidazo[1,5-a]pyrazine-1-carboxamide]
- EC50: < 100 nM

Structure (SMILES): C[C@@H](NC(=O)c1c2n(c(=O)n1-c1ccc(OCC(F)(F)F)cc1)CCN(C(=O)c1ccc(Br)c(Cl)c1)C2)c1ccc(OC(F)F)cc1F (stereo in doubt) [Example 317, 7-(4-bromo-3-chloro-benzoyl)-3-oxo-N-[rac-(1R)-1-[4-(difluoromethoxy)-2-fluoro-phenyl]ethyl]-2-[4-(2,2,2-trifluoroethoxy)phenyl]-6,8-dihydro-5H-imidazo[1,5-a]pyrazine-1-carboxamide]
- EC50: 500 to 5000 nM

Structure (SMILES): C[C@H](NC(=O)c1c2n(c(=O)n1-c1ccc(OCC(F)(F)F)cc1)CCN(C(=O)c1ccc(Br)c(Cl)c1)C2)c1ccc(OC(F)F)cc1F (stereo in doubt) [Example 318, 7-(4-bromo-3-chloro-benzoyl)-3-oxo-N-[rac-(1S)-1-[4-(difluoromethoxy)-2-fluoro-phenyl]ethyl]-2-[4-(2,2,2-trifluoroethoxy)phenyl]-6,8-dihydro-5H-imidazo[1,5-a]pyrazine-1-carboxamide]
- EC50: 100 to 500 nM
